# Data reported in paper PMC11233931, “Remodeling tumor‐associated macrophage for anti‐cancer effects by rational design of irreversible inhibition of mitogen‐activated protein kinase‐activated protein kinase 2” (MedComm, 2024).
# Assays:
# Assay in all cases: Eurofins kinase selectivity profile against 380 other human recombinant kinases (Table S2)
# Type in all cases: biochemical
# [1] = biological target: T1, 380 human recombinant protein kinases (Homo sapiens, UniProt Q9Y2K2); details: SIK3(h), read-out: Inhibition rate (%)
# T1 construct: purchased Eurofins (Celle Lévescault)
# In short: (§1)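 To gauge specificity for MK2, the compound is profiled externally at various concentrations on recombinant human kinases, 380 in total.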
# [2] = biological target: T2, 380 human recombinant protein kinases (Homo sapiens, UniProt Q96PY6); details: NEK1(h), read-out: Inhibition rate
# T2 construct: purchased Eurofins (Celle Lévescault)
# T2 sequence (Q96PY6 1-1258): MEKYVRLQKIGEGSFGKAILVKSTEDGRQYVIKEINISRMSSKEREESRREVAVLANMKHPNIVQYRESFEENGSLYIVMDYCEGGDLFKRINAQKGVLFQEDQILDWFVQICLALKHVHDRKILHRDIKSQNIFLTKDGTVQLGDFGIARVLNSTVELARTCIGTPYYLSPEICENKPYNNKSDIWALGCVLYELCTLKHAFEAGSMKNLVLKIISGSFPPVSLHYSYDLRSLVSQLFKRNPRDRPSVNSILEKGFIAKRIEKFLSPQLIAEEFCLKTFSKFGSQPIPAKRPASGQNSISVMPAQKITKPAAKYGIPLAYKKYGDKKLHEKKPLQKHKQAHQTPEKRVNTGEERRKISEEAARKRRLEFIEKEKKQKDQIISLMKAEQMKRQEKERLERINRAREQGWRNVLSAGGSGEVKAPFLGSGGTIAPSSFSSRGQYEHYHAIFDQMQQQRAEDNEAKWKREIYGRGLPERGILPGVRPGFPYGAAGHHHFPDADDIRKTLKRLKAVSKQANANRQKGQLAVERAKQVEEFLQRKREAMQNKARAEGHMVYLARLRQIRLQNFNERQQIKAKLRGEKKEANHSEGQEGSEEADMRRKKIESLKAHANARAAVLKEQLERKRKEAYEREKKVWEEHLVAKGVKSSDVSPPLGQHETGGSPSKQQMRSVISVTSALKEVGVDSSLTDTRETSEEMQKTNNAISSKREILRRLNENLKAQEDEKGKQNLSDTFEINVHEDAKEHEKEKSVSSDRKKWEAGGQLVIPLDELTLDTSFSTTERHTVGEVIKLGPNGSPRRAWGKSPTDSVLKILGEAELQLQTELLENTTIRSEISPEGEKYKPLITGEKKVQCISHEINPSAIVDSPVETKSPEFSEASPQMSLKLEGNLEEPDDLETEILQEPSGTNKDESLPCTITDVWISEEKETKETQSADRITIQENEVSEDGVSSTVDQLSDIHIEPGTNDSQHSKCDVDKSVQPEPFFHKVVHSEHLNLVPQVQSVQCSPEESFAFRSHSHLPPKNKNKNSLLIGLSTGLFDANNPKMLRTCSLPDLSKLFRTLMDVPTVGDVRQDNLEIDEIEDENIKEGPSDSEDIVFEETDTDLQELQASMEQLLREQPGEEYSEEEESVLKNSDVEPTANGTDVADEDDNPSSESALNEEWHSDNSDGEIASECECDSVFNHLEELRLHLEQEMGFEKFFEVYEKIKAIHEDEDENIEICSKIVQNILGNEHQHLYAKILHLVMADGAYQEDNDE
# In short: as §1
# [3] = biological target: T3, 380 human recombinant protein kinases (Homo sapiens, UniProt P29597); details: TYK2(h), read-out: Inhibition rate (%)
# T3 construct: purchased Eurofins (Celle Lévescault)
# In short: as §1
# [4] = biological target: T4, 380 human recombinant protein kinases (Homo sapiens, UniProt Q96QT4); details: ChaK1(h), read-out: Inhibition rate
# T4 construct: purchased Eurofins (Celle Lévescault)
# In short: as §1
# [5] = biological target: T5, 380 human recombinant protein kinases (Homo sapiens, UniProt Q16816); details: PhKγ1(h), read-out: Inhibition rate
# T5 construct: purchased Eurofins (Celle Lévescault)
# In short: as §1
# [6] = biological target: T6, 380 human recombinant protein kinases (Homo sapiens, UniProt P15056); details: B-Raf(h), read-out: Inhibition rate
# T6 construct: purchased Eurofins (Celle Lévescault)
# In short: as §1
# [7] = biological target: T7, 380 human recombinant protein kinases (Homo sapiens, UniProt Q9Y5S2); details: MRCKβ(h), read-out: Inhibition rate
# T7 construct: purchased Eurofins (Celle Lévescault)
# In short: as §1
# [8] = biological target: T8, 380 human recombinant protein kinases (Homo sapiens, UniProt P51955); details: NEK2(h), read-out: Inhibition rate
# T8 construct: purchased Eurofins (Celle Lévescault)
# T8 sequence (P51955 1-445): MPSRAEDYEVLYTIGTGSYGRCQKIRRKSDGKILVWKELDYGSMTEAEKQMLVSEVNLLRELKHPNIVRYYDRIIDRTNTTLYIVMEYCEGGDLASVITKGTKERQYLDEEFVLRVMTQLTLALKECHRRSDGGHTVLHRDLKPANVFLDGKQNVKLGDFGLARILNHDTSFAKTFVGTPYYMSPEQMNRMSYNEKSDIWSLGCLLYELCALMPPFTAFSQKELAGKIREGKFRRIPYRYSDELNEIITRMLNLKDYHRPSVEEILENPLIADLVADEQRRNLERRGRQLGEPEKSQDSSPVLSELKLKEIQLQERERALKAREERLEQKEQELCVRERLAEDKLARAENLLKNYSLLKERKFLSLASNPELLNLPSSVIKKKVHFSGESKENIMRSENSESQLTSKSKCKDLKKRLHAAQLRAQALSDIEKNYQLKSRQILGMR
# In short: as §1
# [9] = biological target: T9, 380 human recombinant protein kinases (Homo sapiens, UniProt Q14012); details: CaMKI(h), read-out: Inhibition rate
# T9 construct: purchased Eurofins (Celle Lévescault)
# In short: as §1
# T5 sequence (Q16816 whole entry): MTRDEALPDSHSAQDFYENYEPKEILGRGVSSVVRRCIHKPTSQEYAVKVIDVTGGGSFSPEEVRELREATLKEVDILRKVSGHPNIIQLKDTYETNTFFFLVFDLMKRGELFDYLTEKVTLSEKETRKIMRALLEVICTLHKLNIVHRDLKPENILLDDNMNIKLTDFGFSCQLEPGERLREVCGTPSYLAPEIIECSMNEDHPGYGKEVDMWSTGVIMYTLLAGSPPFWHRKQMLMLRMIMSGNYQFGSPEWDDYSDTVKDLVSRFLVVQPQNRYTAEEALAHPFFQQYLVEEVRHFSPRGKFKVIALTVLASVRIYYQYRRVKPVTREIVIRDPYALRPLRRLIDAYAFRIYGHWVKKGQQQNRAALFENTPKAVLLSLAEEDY
# T9 sequence (Q14012 whole entry): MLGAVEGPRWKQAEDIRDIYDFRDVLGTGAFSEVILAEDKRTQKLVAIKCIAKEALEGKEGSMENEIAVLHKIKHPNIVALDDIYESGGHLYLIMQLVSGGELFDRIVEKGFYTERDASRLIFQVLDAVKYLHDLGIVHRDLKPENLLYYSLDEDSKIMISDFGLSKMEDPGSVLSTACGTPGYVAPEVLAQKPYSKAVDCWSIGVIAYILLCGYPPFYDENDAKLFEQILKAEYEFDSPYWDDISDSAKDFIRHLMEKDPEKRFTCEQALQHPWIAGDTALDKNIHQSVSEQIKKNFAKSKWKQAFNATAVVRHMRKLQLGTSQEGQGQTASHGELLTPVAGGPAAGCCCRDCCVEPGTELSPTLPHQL
# T7 sequence (Q9Y5S2 whole entry): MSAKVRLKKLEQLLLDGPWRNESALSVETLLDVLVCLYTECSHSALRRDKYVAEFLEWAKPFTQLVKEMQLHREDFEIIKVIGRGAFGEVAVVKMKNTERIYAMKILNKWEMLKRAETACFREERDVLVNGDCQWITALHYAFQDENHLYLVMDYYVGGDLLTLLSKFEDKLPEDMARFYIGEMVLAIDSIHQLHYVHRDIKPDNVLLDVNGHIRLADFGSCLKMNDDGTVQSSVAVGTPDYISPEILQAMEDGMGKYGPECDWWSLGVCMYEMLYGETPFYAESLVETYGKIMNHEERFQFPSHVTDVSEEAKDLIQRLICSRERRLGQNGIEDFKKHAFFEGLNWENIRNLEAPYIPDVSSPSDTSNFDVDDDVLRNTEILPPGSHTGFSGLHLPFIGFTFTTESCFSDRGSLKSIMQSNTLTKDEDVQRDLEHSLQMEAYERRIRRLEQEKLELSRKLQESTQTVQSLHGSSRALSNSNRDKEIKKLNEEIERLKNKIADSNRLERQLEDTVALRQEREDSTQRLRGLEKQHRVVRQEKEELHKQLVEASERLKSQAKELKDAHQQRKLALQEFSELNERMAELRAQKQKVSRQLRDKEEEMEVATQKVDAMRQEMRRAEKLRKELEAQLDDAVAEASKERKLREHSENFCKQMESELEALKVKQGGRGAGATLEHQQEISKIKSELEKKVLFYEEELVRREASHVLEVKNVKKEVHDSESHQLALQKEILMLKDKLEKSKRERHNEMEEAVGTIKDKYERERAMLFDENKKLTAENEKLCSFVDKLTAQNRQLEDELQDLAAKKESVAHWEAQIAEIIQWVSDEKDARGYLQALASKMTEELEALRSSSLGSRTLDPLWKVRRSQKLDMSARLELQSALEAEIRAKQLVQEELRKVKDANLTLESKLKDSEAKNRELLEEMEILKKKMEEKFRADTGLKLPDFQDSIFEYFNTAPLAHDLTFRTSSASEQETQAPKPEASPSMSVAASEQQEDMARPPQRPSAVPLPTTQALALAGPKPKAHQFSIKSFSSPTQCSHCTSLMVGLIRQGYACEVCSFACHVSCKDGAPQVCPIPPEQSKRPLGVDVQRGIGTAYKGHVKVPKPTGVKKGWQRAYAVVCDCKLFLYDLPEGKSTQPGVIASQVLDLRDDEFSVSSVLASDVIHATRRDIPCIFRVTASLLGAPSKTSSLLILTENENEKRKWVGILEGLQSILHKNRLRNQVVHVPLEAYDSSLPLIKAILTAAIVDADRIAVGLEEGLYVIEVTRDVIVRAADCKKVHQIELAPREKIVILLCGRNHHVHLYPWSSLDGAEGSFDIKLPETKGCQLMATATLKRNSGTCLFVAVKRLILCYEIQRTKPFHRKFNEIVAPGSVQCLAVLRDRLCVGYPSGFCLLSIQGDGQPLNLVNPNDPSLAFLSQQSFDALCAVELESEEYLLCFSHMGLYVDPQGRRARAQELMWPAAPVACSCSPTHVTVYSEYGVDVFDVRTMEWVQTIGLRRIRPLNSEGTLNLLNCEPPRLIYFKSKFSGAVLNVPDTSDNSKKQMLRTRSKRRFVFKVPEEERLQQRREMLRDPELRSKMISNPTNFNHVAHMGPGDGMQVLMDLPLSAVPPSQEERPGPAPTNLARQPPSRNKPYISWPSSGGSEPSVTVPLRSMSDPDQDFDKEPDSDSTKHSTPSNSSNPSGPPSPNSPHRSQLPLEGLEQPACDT
# T4 sequence (Q96QT4 whole entry): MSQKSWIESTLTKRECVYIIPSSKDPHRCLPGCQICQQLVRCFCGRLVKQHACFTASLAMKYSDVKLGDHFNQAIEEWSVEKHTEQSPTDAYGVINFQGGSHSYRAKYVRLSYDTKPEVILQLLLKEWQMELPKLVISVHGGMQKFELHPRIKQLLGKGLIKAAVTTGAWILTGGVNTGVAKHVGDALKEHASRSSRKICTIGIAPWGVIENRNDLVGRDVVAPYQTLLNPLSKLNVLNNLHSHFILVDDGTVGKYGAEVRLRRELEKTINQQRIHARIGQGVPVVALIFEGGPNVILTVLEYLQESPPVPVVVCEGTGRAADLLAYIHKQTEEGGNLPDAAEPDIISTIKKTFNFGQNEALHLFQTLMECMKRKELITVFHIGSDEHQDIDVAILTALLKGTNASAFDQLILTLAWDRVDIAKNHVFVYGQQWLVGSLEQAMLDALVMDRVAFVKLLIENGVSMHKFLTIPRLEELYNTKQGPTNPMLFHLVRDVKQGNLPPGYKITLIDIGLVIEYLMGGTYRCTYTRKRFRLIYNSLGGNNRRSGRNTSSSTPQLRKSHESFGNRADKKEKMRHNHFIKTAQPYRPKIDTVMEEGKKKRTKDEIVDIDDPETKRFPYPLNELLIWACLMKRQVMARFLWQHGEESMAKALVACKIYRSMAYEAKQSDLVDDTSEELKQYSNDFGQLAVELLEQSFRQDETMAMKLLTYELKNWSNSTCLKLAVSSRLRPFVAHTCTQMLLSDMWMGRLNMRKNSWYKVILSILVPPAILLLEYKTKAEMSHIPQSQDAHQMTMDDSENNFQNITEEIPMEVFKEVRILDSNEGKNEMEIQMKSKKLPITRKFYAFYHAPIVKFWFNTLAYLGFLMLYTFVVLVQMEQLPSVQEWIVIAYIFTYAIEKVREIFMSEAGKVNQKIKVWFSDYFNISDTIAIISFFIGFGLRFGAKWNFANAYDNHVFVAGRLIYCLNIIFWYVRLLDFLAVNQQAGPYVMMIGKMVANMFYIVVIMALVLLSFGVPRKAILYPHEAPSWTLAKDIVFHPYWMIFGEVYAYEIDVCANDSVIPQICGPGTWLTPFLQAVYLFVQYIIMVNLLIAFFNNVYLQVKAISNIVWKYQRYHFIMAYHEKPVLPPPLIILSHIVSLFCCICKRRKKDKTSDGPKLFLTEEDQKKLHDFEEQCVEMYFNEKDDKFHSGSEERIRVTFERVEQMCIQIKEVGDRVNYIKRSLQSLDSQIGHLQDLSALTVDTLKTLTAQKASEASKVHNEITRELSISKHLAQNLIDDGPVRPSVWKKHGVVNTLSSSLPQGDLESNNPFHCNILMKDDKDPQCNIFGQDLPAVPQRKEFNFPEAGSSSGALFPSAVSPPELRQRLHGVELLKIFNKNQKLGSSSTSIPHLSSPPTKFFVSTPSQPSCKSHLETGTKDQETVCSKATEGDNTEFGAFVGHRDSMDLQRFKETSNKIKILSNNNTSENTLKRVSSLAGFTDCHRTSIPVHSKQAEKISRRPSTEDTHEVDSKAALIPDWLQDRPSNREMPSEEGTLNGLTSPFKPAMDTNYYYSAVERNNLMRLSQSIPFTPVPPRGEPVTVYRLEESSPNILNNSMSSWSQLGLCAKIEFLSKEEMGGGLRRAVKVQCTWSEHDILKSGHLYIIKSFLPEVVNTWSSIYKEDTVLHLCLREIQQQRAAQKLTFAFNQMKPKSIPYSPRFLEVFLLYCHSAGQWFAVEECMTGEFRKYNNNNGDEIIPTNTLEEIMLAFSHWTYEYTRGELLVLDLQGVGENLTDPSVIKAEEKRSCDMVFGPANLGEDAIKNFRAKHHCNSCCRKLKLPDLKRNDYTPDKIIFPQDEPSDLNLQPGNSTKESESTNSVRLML
# T6 sequence (P15056 whole entry): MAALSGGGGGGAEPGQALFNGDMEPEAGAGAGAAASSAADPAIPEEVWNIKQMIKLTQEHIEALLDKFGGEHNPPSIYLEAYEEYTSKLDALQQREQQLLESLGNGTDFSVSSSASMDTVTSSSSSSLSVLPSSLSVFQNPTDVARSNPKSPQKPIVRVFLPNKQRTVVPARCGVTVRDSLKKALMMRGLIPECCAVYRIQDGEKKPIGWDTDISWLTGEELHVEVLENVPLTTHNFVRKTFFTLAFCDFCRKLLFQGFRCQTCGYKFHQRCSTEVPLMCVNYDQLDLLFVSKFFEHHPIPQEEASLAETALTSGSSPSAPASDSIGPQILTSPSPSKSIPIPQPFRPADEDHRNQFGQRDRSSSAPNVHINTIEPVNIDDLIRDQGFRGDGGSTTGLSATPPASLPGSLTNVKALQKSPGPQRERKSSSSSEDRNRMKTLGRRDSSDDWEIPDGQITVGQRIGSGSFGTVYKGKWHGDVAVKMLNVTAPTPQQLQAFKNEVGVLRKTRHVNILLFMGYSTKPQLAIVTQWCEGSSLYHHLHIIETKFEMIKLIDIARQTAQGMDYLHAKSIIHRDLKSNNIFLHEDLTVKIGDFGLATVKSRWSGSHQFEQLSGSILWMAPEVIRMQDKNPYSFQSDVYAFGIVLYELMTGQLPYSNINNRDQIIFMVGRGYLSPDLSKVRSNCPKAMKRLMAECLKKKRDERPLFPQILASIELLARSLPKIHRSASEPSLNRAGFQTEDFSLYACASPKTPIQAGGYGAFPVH
structure (smiles),measurement,setting,value
C=CC(=O)Nc1cc(-c2cc(-c3cc4c([nH]3)CCNC4=O)ccn2)ccc1OC(F)(F)F [compound 11],inhibition at 0.01 µM,[1]; 10 nM,6%
same,inhibition at 0.1 µM,[1]; 100 nM,1%
same,inhibition at 1 µM,[1]; 1000 nM,12%
same,inhibition at 0.01 µM,[2]; 10 nM,-3%
same,inhibition at 0.1 µM,[2]; 100 nM,-1%
same,inhibition at 1 µM,[2]; 1000 nM,11%
same,inhibition at 0.01 µM,[3]; 10 nM,1%
same,inhibition at 0.1 µM,[3]; 100 nM,10%
same,inhibition at 1 µM,[3]; 1000 nM,14%
same,inhibition at 0.01 µM,[4]; 10 nM,-7%
same,inhibition at 0.1 µM,[4]; 100 nM,1%
same,inhibition at 1 µM,[4]; 1000 nM,-5%
same,inhibition at 0.01 µM,[5]; 10 nM,-3%
same,inhibition at 0.1 µM,[5]; 100 nM,-3%
same,inhibition at 1 µM,[5]; 1000 nM,2%
same,inhibition at 0.01 µM,[6]; 10 nM,-7%
same,inhibition at 0.1 µM,[6]; 100 nM,-7%
same,inhibition at 1 µM,[6]; 1000 nM,4%
same,inhibition at 0.01 µM,[7]; 10 nM,8%
same,inhibition at 0.1 µM,[7]; 100 nM,0%
same,inhibition at 1 µM,[7]; 1000 nM,10%
same,inhibition at 0.01 µM,[8]; 10 nM,-3%
same,inhibition at 0.1 µM,[8]; 100 nM,0%
same,inhibition at 1 µM,[8]; 1000 nM,11%
same,inhibition at 0.01 µM,[9]; 10 nM,-3%
same,inhibition at 0.1 µM,[9]; 100 nM,-3%
same,inhibition at 1 µM,[9]; 1000 nM,-6%
